From PubChem BioAssay (NCI)
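Briefly, cells in 96-well plates were exposed to five compound concentrations for 48 h, and endpoints were estimated by linear interpolation. At the GI50, growth is halved. Definition used: TGI = concentration required for complete inhibition of growth.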

How the values were obtained:
Assay in all cases: NCI anticancer screen, dose series, 48 h
DU-145 prostate = test system: DU-145 prostate
HL-60(TB) leukemia = test system: HL-60(TB) leukemia
HOP-62 NSCLC = test system: HOP-62 NSCLC
HS 578T breast = test system: HS 578T breast
MCF7 breast = test system: MCF7 breast
MDA-MB-435 = test system: MDA-MB-435
RPMI-8226 leukemia = test system: RPMI-8226 leukemia
SK-OV-3 ovarian = test system: SK-OV-3 ovarian
SR leukemia = test system: SR leukemia
TK-10 renal = test system: TK-10 renal

SMILES	TGI (DU-145 prostate) [µM]	TGI (HL-60(TB) leukemia) [µM]	TGI (HOP-62 NSCLC) [µM]	TGI (HS 578T breast) [µM]	TGI (MCF7 breast) [µM]	TGI (MDA-MB-435) [µM]	TGI (RPMI-8226 leukemia) [µM]	TGI (SK-OV-3 ovarian) [µM]	TGI (SR leukemia) [µM]	TGI (TK-10 renal) [µM]	GI50 (DU-145 prostate) [µM]	GI50 (HL-60(TB) leukemia) [µM]	GI50 (HOP-62 NSCLC) [µM]	GI50 (HS 578T breast) [µM]	GI50 (MDA-MB-435) [µM]	GI50 (RPMI-8226 leukemia) [µM]	GI50 (SK-OV-3 ovarian) [µM]	GI50 (TK-10 renal) [µM]	GI50 (SR leukemia) [µM]
CC(C(=O)NCCNC(=O)CCCC(=O)N(C)O)C(=O)NCCNC(=O)CCCC(=O)N(C)O	> 100	> 100	> 100	> 100	> 100	> 100	> 100	> 100	> 100	> 100	–	–	–	–	–	–	–	–	–
Fc1ccc(Nc2ncc(-c3cc(F)c(Cl)cc3Cl)s2)cc1Cl	30.8	36.2	21.8	36.4	2.48	32.5	25.1	> 100	–	21.8	9.01	18.1	9.43	11.5	15.4	9.38	90.8	8.05	–
COc1cc(/C=N/N=C(\N)NO)ccc1O	–	–	–	–	–	–	> 100	> 100	–	–	–	–	–	–	–	–	–	–	–
CN(CC(=O)O)CC(=O)O	> 100	> 100	> 100	> 100	> 100	> 100	> 100	> 100	–	> 100	–	–	–	–	–	–	–	–	–
OCC(O)C(O)C(O)C(O)CNCCO/N=C1/C(c2c(O)[nH]c3ccccc23)=Nc2ccccc21 (stereo unspecified)	> 50	37.9	22.9	44.4	33.1	20.4	> 50	29.8	25.3	> 50	–	–	–	–	–	–	–	–	–
Fc1cc(C2=Nn3c(CNc4ccc(Cl)cc4)nnc3S/C2=C\c2ccc(-c3ccc(Cl)cc3)o2)c(Cl)cc1Cl	> 100	> 100	91.6	> 100	> 100	> 100	79.1	–	> 100	> 100	–	–	–	–	–	–	–	–	–
CNCCCn1c2c(c3ccc(Cl)cc3c1=O)C(=O)c1cc(OC)cnc1-2	1.74	2.4	–	–	–	2.32	–	2.08	1.11	–	0.331	0.601	–	–	1.07	–	0.658	–	0.143
O=S(=O)(Nc1nccs1)c1ccc([As](=O)(O)O)cc1	> 100	> 100	> 100	> 100	> 100	> 100	> 100	> 100	–	> 100	–	–	–	–	–	–	–	–	–
O=c1ccc2c(Cl)cccc2o1	> 100	> 100	> 100	> 100	> 100	> 100	> 100	–	> 100	> 100	–	–	–	–	–	–	–	–	–
COc1ccc(N2C(=O)C(=O)N(C)C2=O)c2ccccc12	> 10	> 10	> 10	> 10	> 10	> 10	> 10	> 10	> 10	> 10	–	–	–	–	–	–	–	–	–
CSC1=C(SC)C(=O)c2cn(C)c(=O)cc2C1=O	21	–	24.8	> 26.5	4.49	3.35	> 100	31.3	–	5.39	–	–	–	–	–	–	–	–	–
O=[N+]([O-])c1ccc(Cc2nc3cc4ccccc4cc3[nH]2)cc1C(F)(F)F	57.2	> 100	27.3	49.9	55.5	21	–	31	–	35.8	–	–	–	–	–	–	–	–	–
OC(c1ccccc1)C1CC2C=CC1C2 (stereo unspecified)	–	> 100	> 100	–	–	–	> 100	> 100	–	> 100	–	–	–	–	–	–	–	–	–
